{"source": "patent US20240016729A1", "about": "“INJECTABLE FORMULATIONS OF IBUDILAST” (MediciNova, Inc., priority 2022, published 2024)", "key": {"[1]": {"test": "Follow-up solubility assessment (cosolvent mixtures, surfactants)", "assay_type": "physicochemical", "details": "thermodynamic from solid, ibudilast conc. 75 mg/mL", "procedure": "Solubility of ibudilast was assessed using cosolvent mixtures with and without water, increased surfactant concentrations, or a combination of surfactant and cosolvents as shown in the following table."}, "[2]": {"test": "Initial solubility screen with various excipients", "assay_type": "physicochemical", "details": "for solubility at 24 h: fully dissolved after 24 h"}}}
{"smiles": "CC(C)C(=O)c1c(C(C)C)nn2ccccc12", "note": "[ibudilast, 3-isobutyryl-2-isopropylpyrazolo[1,5-a]pyridine]", "values": [{"measurement": "solubility", "setting": "[1]; Kolliphor ELP/ethanol/water 5/50/45 % w/v, aqueous with cosolvent or surfactant or cyclodextrin", "result": 83.7, "unit": "mg/mL"}, {"measurement": "solubility", "setting": "[1]; Kolliphor ELP/propylene glycol/water 5/50/45 % w/v, aqueous with cosolvent or surfactant or cyclodextrin", "result": 19.4, "unit": "mg/mL"}, {"measurement": "solubility", "setting": "[1]; Kolliphor ELP/propylene glycol/water 30/50/20 % w/v, aqueous with cosolvent or surfactant or cyclodextrin", "result": 72.9, "unit": "mg/mL"}, {"measurement": "solubility", "setting": "[1]; Kolliphor ELP/water 30/70 % w/v, aqueous with cosolvent or surfactant or cyclodextrin", "result": 42.7, "unit": "mg/mL"}, {"measurement": "solubility", "setting": "[1]; Kolliphor ELP/water 80/20 % w/v, aqueous with cosolvent or surfactant or cyclodextrin, less than 5 mL added due to viscosity of medium", "result": 97.6, "unit": "mg/mL"}, {"measurement": "solubility", "setting": "[1]; PEG 400/water 50/50 % w/v cosolvent mixture, aqueous with cosolvent or surfactant or cyclodextrin, PEG 400/water 50/50 % w/v", "result": 9.22, "unit": "mg/mL"}, {"measurement": "solubility", "setting": "[1]; Tween 80/ethanol/water 5/50/45 % w/v, aqueous with cosolvent or surfactant or cyclodextrin", "result": 84, "unit": "mg/mL"}, {"measurement": "solubility", "setting": "[1]; Tween 80/propylene glycol/water 5/50/45 % w/v, aqueous with cosolvent or surfactant or cyclodextrin", "result": 14.8, "unit": "mg/mL"}, {"measurement": "solubility", "setting": "[1]; Tween 80/propylene glycol/water 30/50/20 % w/v, aqueous with cosolvent or surfactant or cyclodextrin", "result": 76.3, "unit": "mg/mL"}, {"measurement": "solubility", "setting": "[1]; Tween 80/water 30/70 % w/v, aqueous with cosolvent or surfactant or cyclodextrin", "result": 31.9, "unit": "mg/mL"}, {"measurement": "solubility", "setting": "[1]; Tween 80/water 80/20 % w/v, aqueous with cosolvent or surfactant or cyclodextrin, less than 5 mL added due to viscosity of medium", "result": 84.4, "unit": "mg/mL"}, {"measurement": "solubility", "setting": "[1]; aqueous with cosolvent or surfactant or cyclodextrin, propylene glycol/ethanol/water 50/25/25 % w/v", "result": 71.4, "unit": "mg/mL"}, {"measurement": "solubility", "setting": "[1]; ethanol/water 50/50 % w/v, aqueous with cosolvent or surfactant or cyclodextrin", "result": 72.6, "unit": "mg/mL"}, {"measurement": "solubility", "setting": "[1]; organic solvent or mixture, propylene glycol/PEG 400/glycerol 50/25/25 % w/v", "result": 68.7, "unit": "mg/mL"}, {"measurement": "solubility", "setting": "[1]; organic solvent or mixture, propylene glycol/ethanol/glycerol 50/25/25 % w/v", "result": 71.9, "unit": "mg/mL"}, {"measurement": "solubility", "setting": "[1]; propylene glycol/PEG 400/water 50/25/25 % w/v, aqueous with cosolvent or surfactant or cyclodextrin", "result": 31.3, "unit": "mg/mL"}, {"measurement": "solubility", "setting": "[1]; propylene glycol/water 50/50 % w/v, aqueous with cosolvent or surfactant or cyclodextrin", "result": 5.82, "unit": "mg/mL"}, {"measurement": "solubility", "setting": "[1]; propylene glycol/water 80/20 % w/v, aqueous with cosolvent or surfactant or cyclodextrin", "result": 37.3, "unit": "mg/mL"}, {"measurement": "solubility", "setting": "[2]; aqueous buffer, thermodynamic from solid, acetate buffer pH 5, 50 mM, ibudilast conc. 5 mg/mL", "result": 0.175, "unit": "mg/mL"}, {"measurement": "solubility", "setting": "[2]; aqueous buffer, thermodynamic from solid, borate buffer pH 9, 50 mM, ibudilast conc. 5 mg/mL", "result": 0.171, "unit": "mg/mL"}, {"measurement": "solubility", "setting": "[2]; aqueous buffer, thermodynamic from solid, citrate buffer pH 3, 50 mM, ibudilast conc. 5 mg/mL", "result": 0.375, "unit": "mg/mL"}, {"measurement": "solubility", "setting": "[2]; aqueous buffer, thermodynamic from solid, phosphate buffer pH 7.5, 50 mM, ibudilast conc. 5 mg/mL", "result": 0.175, "unit": "mg/mL"}, {"measurement": "solubility", "setting": "[2]; aqueous with cosolvent or surfactant or cyclodextrin, thermodynamic from solid, HP-β-CD 10% w/v, ibudilast conc. 25 mg/mL", "result": 2.11, "unit": "mg/mL"}, {"measurement": "solubility", "setting": "[2]; aqueous with cosolvent or surfactant or cyclodextrin, thermodynamic from solid, HP-β-CD 30% w/v, ibudilast conc. 25 mg/mL", "result": 6.72, "unit": "mg/mL"}, {"measurement": "solubility", "setting": "[2]; aqueous with cosolvent or surfactant or cyclodextrin, thermodynamic from solid, Kolliphor ELP 5% w/v, ibudilast conc. 25 mg/mL", "result": 6.82, "unit": "mg/mL"}, {"measurement": "solubility at 24 h", "setting": "[2]; aqueous with cosolvent or surfactant or cyclodextrin, thermodynamic from solid, Kolliphor ELP 30% w/v, ibudilast conc. 25 mg/mL, solubility may be higher", "result": 28, "unit": "mg/mL"}, {"measurement": "solubility", "setting": "[2]; aqueous with cosolvent or surfactant or cyclodextrin, thermodynamic from solid, Kolliphor HS 15 5% w/v, ibudilast conc. 25 mg/mL", "result": 5.64, "unit": "mg/mL"}, {"measurement": "solubility", "setting": "[2]; aqueous with cosolvent or surfactant or cyclodextrin, thermodynamic from solid, Kolliphor HS 15 50% w/v, ibudilast conc. 25 mg/mL", "result": 22.8, "unit": "mg/mL"}, {"measurement": "solubility", "setting": "[2]; aqueous with cosolvent or surfactant or cyclodextrin, thermodynamic from solid, Kolliphor RH 40 5% w/v, ibudilast conc. 25 mg/mL", "result": 5.58, "unit": "mg/mL"}, {"measurement": "solubility", "setting": "[2]; aqueous with cosolvent or surfactant or cyclodextrin, thermodynamic from solid, Kolliphor RH 40 30% w/v, ibudilast conc. 25 mg/mL", "result": 29.5, "unit": "mg/mL"}, {"measurement": "solubility", "setting": "[2]; aqueous with cosolvent or surfactant or cyclodextrin, thermodynamic from solid, PEG 400 25% w/v, ibudilast conc. 25 mg/mL", "result": 1.11, "unit": "mg/mL"}, {"measurement": "solubility", "setting": "[2]; aqueous with cosolvent or surfactant or cyclodextrin, thermodynamic from solid, SBE-β-CD 10% w/v, ibudilast conc. 25 mg/mL", "result": 3.79, "unit": "mg/mL"}, {"measurement": "solubility", "setting": "[2]; aqueous with cosolvent or surfactant or cyclodextrin, thermodynamic from solid, SBE-β-CD 30% w/v, ibudilast conc. 25 mg/mL", "result": 11.9, "unit": "mg/mL"}, {"measurement": "solubility", "setting": "[2]; aqueous with cosolvent or surfactant or cyclodextrin, thermodynamic from solid, Tween 20 5% w/v, ibudilast conc. 25 mg/mL", "result": 3.21, "unit": "mg/mL"}, {"measurement": "solubility at 24 h", "setting": "[2]; aqueous with cosolvent or surfactant or cyclodextrin, thermodynamic from solid, Tween 20 50% w/v, ibudilast conc. 25 mg/mL, solubility may be higher", "result": 27.2, "unit": "mg/mL"}, {"measurement": "solubility", "setting": "[2]; aqueous with cosolvent or surfactant or cyclodextrin, thermodynamic from solid, Tween 80 5% w/v, ibudilast conc. 25 mg/mL", "result": 4.79, "unit": "mg/mL"}, {"measurement": "solubility", "setting": "[2]; aqueous with cosolvent or surfactant or cyclodextrin, thermodynamic from solid, Tween 80 30% w/v, ibudilast conc. 25 mg/mL", "result": 21.5, "unit": "mg/mL"}, {"measurement": "solubility", "setting": "[2]; aqueous with cosolvent or surfactant or cyclodextrin, thermodynamic from solid, ethanol 25% w/v, ibudilast conc. 25 mg/mL", "result": 4.15, "unit": "mg/mL"}, {"measurement": "solubility", "setting": "[2]; aqueous with cosolvent or surfactant or cyclodextrin, thermodynamic from solid, glycerol 25% w/v, ibudilast conc. 25 mg/mL", "result": 0.385, "unit": "mg/mL"}, {"measurement": "solubility", "setting": "[2]; organic solvent or mixture, thermodynamic from solid, PEG 400 100% w/v, more ibudilast added up to 50 mg/mL after 2 h tumbling, solubility may be higher", "result": 51.6, "unit": "mg/mL"}, {"measurement": "solubility", "setting": "[2]; organic solvent or mixture, thermodynamic from solid, ethanol 100% w/v, more ibudilast added up to 50 mg/mL after 2 h tumbling, solubility may be higher", "result": 50, "unit": "mg/mL"}, {"measurement": "solubility", "setting": "[2]; organic solvent or mixture, thermodynamic from solid, glycerol 100% w/v, ibudilast conc. 25 mg/mL", "result": 10.3, "unit": "mg/mL"}, {"measurement": "solubility", "setting": "[2]; organic solvent or mixture, thermodynamic from solid, propylene glycol 100% w/v, more ibudilast added up to 50 mg/mL after 2 h tumbling, solubility may be higher", "result": 52.9, "unit": "mg/mL"}, {"measurement": "solubility", "setting": "[2]; water, ibudilast conc. 5 mg/mL", "result": 0.186, "unit": "mg/mL"}]}
